Source: patent publication US9212168B2 (priority 2011, dated 2015)

Columns and labels:
[1] = molecular target: HCV genotype 1b replicon; assay: HCV genotype 1b replicon assay (Renilla luciferase readout); type: cell-based, hepatitis C virus; conditions: for Genotype 1b: HCV genotype 1b replicon; for EC50: Hepatitis C virus, read-out: Genotype 1b
Procedure, shortened: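 Huh7-derived APC144 subgenomic replicon cells carrying Renilla luciferase–NS3-NS5B, seeded 10,000/well without G418, then treated with compound dose-responses for 48 h at 37 °C (0.5% DMSO final). Luciferase signal fitted by 4-parameter model to EC50, reported as pEC50.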

[2] = tested on: HCV genotype 1a replicon; assay: HCV genotype 1a replicon assay (NS3 protease activity readout); type: cell-based, hepatitis C virus; conditions: for Genotype 1a: HCV genotype 1a replicon; for EC50: Hepatitis C virus, read-out: Genotype 1a, HCV genotype 1a replicon
Procedure, shortened: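 Genotype 1a subgenomic replicon cells (APC89, Huh7.5) were treated with compound dose-responses in G418-free medium, 0.5% DMSO final, for 48 or 72 hours at 37° C. Lysate NS3/4a protease activity measured with 15 μM FRET substrate, 20 min at 37° C (ex 340/em 509 nm); EC50 by 4-parameter fit.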

Row | SMILES | Genotype 1b [1] | Genotype 1a [2] | EC50 [1] [nM] | EC50 [2] [nM]
1 | COC(=O)N[C@H](C(=O)N1C[C@@H](C)C[C@H]1c1nc(-c2ccc(-c3ccc(C(=O)Nc4ccc(N5C[C@H](C)N(C(=O)C6CC6)C[C@H]5C)nc4)cc3OC(F)(F)F)cc2)c[nH]1)C(C)C [Example 4-16] | D (D represents pEC50>10 (EC50<0.1 nM)) | C (C represents pEC50 between and 9 and about 10, (EC50 between 1 nM and 0.1 nM)) | – | –
2 | COC(=O)N[C@H](C(=O)N1C[C@@H](C)C[C@H]1c1nc(-c2ccc(-c3ccc(C(=O)Nc4ccc(N5C[C@H](C)N(C(=O)C6CC6C)C[C@H]5C)nc4)cc3OC(F)(F)F)cc2)c[nH]1)C(C)C (stereo partly drawn) [Example 4-17] | D (D represents pEC50>10 (EC50<0.1 nM)) | C (C represents pEC50 between and 9 and about 10, (EC50 between 1 nM and 0.1 nM)) | – | –
3 | COC(=O)N[C@H](C(=O)N1C[C@@H](C)C[C@H]1c1nc(-c2ccc(-c3ccc(C(=O)Nc4ccc(N5C[C@H](C)N(C(=O)[C@H]6CCCN6C(=O)C6CC6)C[C@H]5C)nc4)cc3OC(F)(F)F)cc2)c[nH]1)C(C)C [Example 4-18] | D (D represents pEC50>10 (EC50<0.1 nM)) | D (D represents pEC50>10 (EC50<0.1 nM)) | – | –
4 | CNC(=O)N1CCC[C@@H]1C(=O)N1C[C@@H](C)N(c2ccc(NC(=O)c3ccc(-c4ccc(-c5c[nH]c([C@@H]6C[C@H](C)CN6C(=O)[C@@H](NC(=O)OC)C(C)C)n5)cc4)c(OC(F)(F)F)c3)cn2)C[C@@H]1C [Example 4-19] | D (D represents pEC50>10 (EC50<0.1 nM)) | D (D represents pEC50>10 (EC50<0.1 nM)) | – | –
5 | COC(=O)N[C@H](C(=O)N1C[C@@H](C)C[C@H]1c1nc(-c2ccc(-c3ccc(C(=O)Nc4ccc(N5C[C@H](C)N(C(=O)[C@H]6CCCN6C(=O)NC(C)C)C[C@H]5C)nc4)cc3OC(F)(F)F)cc2)c[nH]1)C(C)C [Example 4-20] | D (D represents pEC50>10 (EC50<0.1 nM)) | C (C represents pEC50 between and 9 and about 10, (EC50 between 1 nM and 0.1 nM)) | – | –
6 | CCC(=O)N1CCC[C@@H]1C(=O)N1C[C@@H](C)N(c2ccc(NC(=O)c3ccc(-c4ccc(-c5c[nH]c([C@@H]6C[C@H](C)CN6C(=O)[C@@H](NC(=O)OC)C(C)C)n5)cc4)c(OC(F)(F)F)c3)cn2)C[C@@H]1C [Example 4-21] | D (D represents pEC50>10 (EC50<0.1 nM)) | D (D represents pEC50>10 (EC50<0.1 nM)) | – | –
7 | COC(=O)N[C@H](C(=O)N1C[C@@H](C)C[C@H]1c1nc(-c2ccc(-c3ccc(C(=O)Nc4ccc(N5C[C@H](C)N(C(=O)[C@@]6(O)CC6(C)C)C[C@H]5C)nc4)cc3OC(F)(F)F)cc2)c(Cl)[nH]1)C(C)C [Example 4-37] | D (D represents pEC50>10 (EC50<0.1 nM)) | D (D represents pEC50>10 (EC50<0.1 nM)) | – | –
8 | COC(=O)N[C@H](C(=O)N1C[C@@H](C)C[C@H]1c1nc(-c2ccc(-c3ccc(C(=O)Nc4ccc(N5CCN(C(=O)C(C)(C)C)C[C@H]5C)nc4)cc3OC(F)(F)F)cc2)c(F)[nH]1)C(C)C [Example 4-42] | D (D represents pEC50>10 (EC50<0.1 nM)) | D (D represents pEC50>10 (EC50<0.1 nM)) | – | –
9 | COC(=O)N[C@H](C(=O)N1C[C@@H](C)C[C@H]1c1nc(-c2ccc(-c3cc(Cl)c(C(=O)Nc4ccc(N5CCN(C(=O)C(C)(C)C)C[C@H]5C)nc4)cc3OC(F)(F)F)cc2)c[nH]1)C(C)C [Example 4-46] | D (D represents pEC50>10 (EC50<0.1 nM)) | D (D represents pEC50>10 (EC50<0.1 nM)) | – | –
10 | COC(=O)N[C@H](C(=O)N1C[C@@H](SC)C[C@H]1c1nc(-c2ccc(-c3cc(Cl)c(C(=O)Nc4ccc(N5CCN(C(=O)C(C)(C)C)C[C@H]5C)nc4)cc3OC(F)(F)F)cc2)c[nH]1)C(C)C [Example 5-3] | – | – | < 0.1 | < 0.1
11 | COC(=O)N[C@H](C(=O)N1C[C@@H](SC)C[C@H]1c1nc(-c2ccc(-c3cc(Cl)c(NC(=O)c4ccc(N5CCN(C(=O)[C@H]6CC6(C)C)C[C@H]5C)nc4)cc3OC(F)(F)F)cc2)c[nH]1)C(C)C [Example 5-4] | – | – | < 0.1 | < 0.1
12 | COC(=O)N[C@H](C(=O)N1C[C@@H](C)C[C@H]1c1nc(-c2ccc(-c3cc(F)c(NC(=O)c4ccc(N5CCN(C(=O)C(C)(C)C)C[C@H]5C)nc4)cc3Cl)cc2)c[nH]1)C(C)C [Example 5-6] | – | – | < 0.1 | 0.1 to 1
13 | COC(=O)N[C@H](C(=O)N1C[C@@H](C)C[C@H]1c1nc(-c2ccc(-c3cc(Cl)c(NC(=O)c4ccc(N5CCN(C(=O)C(C)(C)C)C[C@H]5C)nc4)cc3OC(F)(F)F)cc2)c(F)[nH]1)C(C)C [Example 5-8] | – | – | < 0.1 | < 0.1
14 | CNC(=O)N1C[C@@H](C)N(c2ccc(C(=O)Nc3cc(OC(F)(F)F)c(-c4ccc(-c5c[nH]c([C@@H]6C[C@H](C)CN6C(=O)[C@@H](c6ccccc6)N6CCCCC6)n5)cc4)cc3Cl)cn2)C[C@@H]1C [Example 5-9] | – | – | < 0.1 | < 0.1
15 | COC(=O)N[C@H](C(=O)N1C[C@@H](OC)C[C@H]1c1nc(-c2ccc(-c3cc(Cl)c(NC(=O)c4ccc(N5CCN(C(=O)C(C)(C)C)C[C@H]5C)nc4)cc3OC(F)(F)F)cc2)c(CO)[nH]1)C(C)C [Example 5-18] | – | – | < 0.1 | < 0.1
16 | COC(=O)N[C@H](C(=O)N1C[C@@H](O)C[C@H]1c1nc(-c2ccc(-c3ccc(NC(=O)c4ccc(N5CCN(C(=O)[C@]6(C)CCCN6C(=O)OC)C[C@H]5C)nc4)cc3)cc2)c[nH]1)C(C)C [Example 5] | – | – | < 0.1 | 0.1 to 1
17 | COC(=O)N[C@H](C(=O)N1C[C@@H](N(C)C)C[C@H]1c1nc(-c2ccc(-c3ccc(NC(=O)c4ccc(N5CCN(C(=O)C6CC6)C[C@H]5C)nc4)cc3)cc2)c[nH]1)C(C)C [Example 6, ((S)-1-{(2S,4S)-2-[4-(4′-{[6-((R)-4-Cyclopropanecarbonyl-2-methyl-piperazin-1-yl)-pyridine-3-carbonyl]-amino}-biphenyl-4-yl)-1H-imidazol-2-yl]-4-dimethylamino-pyrrolidine-1-carbonyl}-2-methyl-propyl)-carbamic acid methyl ester] | – | – | < 0.1 | 0.1 to 1
18 | COC(=O)N[C@H](C(=O)N1CC2(C[C@H]1c1nc(-c3ccc(-c4ccc(C(=O)Nc5ccc(N6CCN(C(=O)C7CC7(C)C)C[C@H]6C)nc5)cc4)cc3)c[nH]1)OCCO2)C(C)C (stereo partly drawn) [Example 6-1] | – | – | < 0.1 | 0.1 to 1
19 | COC(=O)N[C@H](C(=O)N1C[C@@H](N(C)C)C[C@H]1c1nc(-c2ccc(-c3ccc(C(=O)Nc4ccc(N5CCN(C(=O)C6CC6(C)C)C[C@H]5C)nc4)cc3)cc2)c[nH]1)C(C)C (stereo partly drawn) [Example 6-5] | – | – | < 0.1 | 0.1 to 1
20 | COC(=O)N[C@H](C(=O)N1C[C@@H](SC)C[C@H]1c1nc(-c2ccc(-c3ccc(C(=O)Nc4ccc(N5CCN(C(=O)[C@]6(C)CCCN6C(=O)[C@@H](NC(=O)OC)C(C)C)C[C@H]5C)nc4)cc3OC(F)(F)F)cc2)c[nH]1)C(C)C [Example 6-9] | – | – | < 0.1 | < 0.1
21 | COCC(=O)N1CCC[C@@]1(C)C(=O)N1CCN(c2ccc(NC(=O)c3ccc(-c4ccc(-c5c[nH]c([C@@H]6C[C@H](SC)CN6C(=O)[C@@H](NC(=O)OC)C(C)C)n5)cc4)c(OC(F)(F)F)c3)cn2)[C@H](C)C1 [Example 6-10] | – | – | < 0.1 | < 0.1
22 | CNC(=O)N1CCN(c2ccc(NC(=O)c3ccc(-c4ccc(-c5c[nH]c([C@@H]6C[C@@H]7CCCC[C@@H]7N6C(=O)[C@@H](NC(=O)OC)C(C)C)n5)cc4)c(OC(F)(F)F)c3)cn2)[C@H](C)C1 [Example 6-11] | – | – | < 0.1 | 0.1 to 1
23 | COC(=O)N[C@H](C(=O)N1[C@H](c2nc(-c3ccc(-c4ccc(C(=O)Nc5ccc(N6CCN(C(=O)C7CC7(C)C)C[C@H]6C)nc5)cc4OC(F)(F)F)cc3)c[nH]2)C[C@@H]2CCCC[C@@H]21)C(C)C (stereo partly drawn) [Example 6-12] | – | – | < 0.1 | 0.1 to 1
24 | COC(=O)N[C@H](C(=O)N1[C@@H]2C[C@@H]2C[C@H]1c1nc(-c2ccc(-c3cc(Cl)c(NC(=O)c4ccc(N5CCN(C(=O)C(C)(C)C)C[C@H]5C)nc4)cc3OC(F)(F)F)cc2)c[nH]1)C(C)C [Example 8-2] | – | – | < 0.1 | < 0.1
25 | COC(=O)N[C@H](C(=O)N1C[C@@H](C)C[C@H]1c1nc(-c2ccc(-c3cc(Cl)c(NC(=O)c4ccc(N5CCN(C(=O)N(C)OC)C[C@H]5C)nc4)cc3OC(F)(F)F)cc2)c[nH]1)C(C)C [Example 12-1] | – | – | < 0.1 | < 0.1
26 | COC(=O)N[C@H](C(=O)N1C[C@@H](C)C[C@H]1c1nc(-c2ccc(-c3cc(Cl)c(NC(=O)c4ccc(N5CCN(C(=O)C(C)(C)CO)C[C@H]5C)nc4)cc3OC(F)(F)F)cc2)c[nH]1)C(C)C [Example 12-8] | – | – | < 0.1 | < 0.1
27 | COC(=O)N[C@H](C(=O)N1C[C@@H](C)C[C@H]1c1nc(-c2ccc(-c3cc(Cl)c(NC(=O)c4ccc(N5CCN(C(=O)NN6CCOC6=O)C[C@H]5C)nc4)cc3OC(F)(F)F)cc2)c[nH]1)C(C)C [Example 12-17] | – | – | < 0.1 | < 0.1
28 | COC(=O)N[C@H](C(=O)N1C[C@@H](C)C[C@H]1c1nc(-c2ccc(-c3cc(Cl)c(NC(=O)c4ccc(N5CCN(C(=O)NC(C)(C)C)C[C@H]5C)nc4)cc3OC(F)(F)F)cc2)c[nH]1)C(C)C [Example 12-24] | – | – | < 0.1 | < 0.1
29 | COCC(C)(C)C(=O)N1CCN(c2ccc(C(=O)Nc3cc(OC(F)(F)F)c(-c4ccc(-c5c[nH]c([C@@H]6C[C@H](C)CN6C(=O)[C@@H](NC(=O)OC)C(C)C)n5)cc4)cc3Cl)cn2)[C@H](C)C1 [Example 12-32] | – | – | < 0.1 | < 0.1
30 | COC(=O)N[C@H](C(=O)N1C[C@@H](C)C[C@H]1c1nc(-c2ccc(-c3cc(Cl)c(NC(=O)c4ccc(N5CCN(C(=O)C6CC(O)C6)C[C@H]5C)nc4)cc3OC(F)(F)F)cc2)c[nH]1)C(C)C (stereo partly drawn) [Example 12-47] | – | – | < 0.1 | < 0.1
